In ChEMBL document CHEMBL4340562, “Discovery of novel pyridazine derivatives as glucose transporter type 4 (GLUT4) translocation activators” (Bioorg Med Chem Lett, 2019):
Each block holds one molecule with its values, some of them ahead of it. Activity calls are given as the source filed them. No cut-off for these calls is given here.

Tests used:
[1] = 1-octanol/PBS distribution co-efficient, log D of the compound at pH 7.4; assay type: physicochemical
[2] = Stability of the compound in mouse liver microsomes assessed as parent compound remaining after 30 mins relative to control; assay type: ADME, Microsome; settings: read-out: Stability
[3] = biological target: T1, Solute carrier family 2, facilitated glucose transporter member 4 (Rattus norvegicus) (UniProt P19357); test: Induction of GLUT4 translocation in rat L6-GLUT4myc differentiated myotube cells at 3 uM after 20 mins by chemiluminescent method relative to 30 uM 2-(4-(4-(2-methoxyphenyl)-6,7-dihydro-5H-cyclopenta[d]pyridazin-1-ylamino)phenyl)acetamide
T1 sequence (whole entry): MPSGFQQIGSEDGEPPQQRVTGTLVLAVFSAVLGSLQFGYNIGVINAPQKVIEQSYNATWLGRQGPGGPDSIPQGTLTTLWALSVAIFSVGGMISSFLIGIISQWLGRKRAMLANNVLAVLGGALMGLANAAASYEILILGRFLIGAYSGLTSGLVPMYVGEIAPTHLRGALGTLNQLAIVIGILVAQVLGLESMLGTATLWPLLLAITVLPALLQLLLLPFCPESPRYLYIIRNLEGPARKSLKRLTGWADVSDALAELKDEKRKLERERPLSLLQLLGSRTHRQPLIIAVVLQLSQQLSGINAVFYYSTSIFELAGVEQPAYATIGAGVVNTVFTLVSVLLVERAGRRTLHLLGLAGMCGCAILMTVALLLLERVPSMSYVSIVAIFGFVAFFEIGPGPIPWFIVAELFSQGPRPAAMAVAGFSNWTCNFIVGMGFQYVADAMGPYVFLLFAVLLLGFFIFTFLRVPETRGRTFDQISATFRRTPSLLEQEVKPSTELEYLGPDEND

[4] = biological target: T1, Solute carrier family 2, facilitated glucose transporter member 4 (Rattus norvegicus); test: Induction of GLUT4 translocation in rat L6-GLUT4myc differentiated myotube cells at 30 uM after 20 mins by chemiluminescent method relative to 30 uM 2-(4-(4-phenylphthalazin-1-ylamino)phenyl)acetamide
[5] = biological target: T1, Solute carrier family 2, facilitated glucose transporter member 4 (Rattus norvegicus); test: Induction of GLUT4 translocation in rat L6-GLUT4myc differentiated myotube cells at 3 uM after 20 mins by chemiluminescent method relative to 2-(4-(4-(2-methoxyphenyl)phthalazin-1-ylamino)phenyl)acetamide
Mus musculus [6] = test: Antidiabetic activity in db/db mouse assessed as reduction in fasting plasma glucose level at 3 mg/kg, po measured up to 4 hrs; assay type: functional
Mus musculus [7] = test: Antidiabetic activity in db/db mouse assessed as reduction in fasting plasma glucose level at 10 mg/kg, po measured up to 4 hrs; assay type: functional
Mus musculus [8] = test: Antidiabetic activity in db/db mouse assessed as reduction in fasting plasma glucose level at 30 mg/kg, po measured up to 4 hrs; assay type: functional
Mus musculus [9] = test: Antidiabetic activity in db/db mouse assessed as reduction in fasting plasma glucose AUC at 3 mg/kg, po measured up to 4 hrs; assay type: functional, organism-based; design: dose 3 mg/kg, time < 4 hr
Mus musculus [10] = test: Antidiabetic activity in db/db mouse assessed as reduction in fasting plasma glucose AUC at 10 mg/kg, po measured up to 4 hrs; assay type: functional, organism-based; design: dose 10 mg/kg, time < 4 hr
Mus musculus [11] = test: Antidiabetic activity in db/db mouse assessed as reduction in fasting plasma glucose AUC at 30 mg/kg, po measured up to 4 hrs; assay type: functional, organism-based; design: dose 30 mg/kg, time < 4 hr
[12] = Cmax in db/db mouse plasma at 3 mg/kg, po measured up to 4 hrs; assay type: ADME, organism-based; design: dose 3 mg/kg, route oral
[13] = Cmax in db/db mouse plasma at 10 mg/kg, po measured up to 4 hrs; assay type: ADME, organism-based; design: dose 10 mg/kg, route oral
[14] = Cmax in db/db mouse plasma at 30 mg/kg, po measured up to 4 hrs; assay type: ADME, organism-based; design: dose 30 mg/kg, route oral
[15] = AUC (0 to 4 hrs) in db/db mouse plasma at 3 mg/kg, po measured up to 4 hrs; assay type: ADME, organism-based; design: dose 3 mg/kg, time < 4 hr, route oral
[16] = AUC (0 to 4 hrs) in db/db mouse plasma at 10 mg/kg, po measured up to 4 hrs; assay type: ADME, organism-based; design: dose 10 mg/kg, time < 4 hr, route oral
[17] = AUC (0 to 4 hrs) in db/db mouse plasma at 30 mg/kg, po measured up to 4 hrs; assay type: ADME, organism-based; design: time < 4 hr, dose 30 mg/kg, route oral
Mus musculus [18] = test: Antidiabetic activity in db/db mouse assessed as reduction in fasting plasma glucose level at 3 to 30 mg/kg, po measured up to 4 hrs; assay type: functional, organism-based
[19] = Cmax in db/db mouse plasma at 3 to 30 mg/kg, po measured up to 4 hrs; assay type: ADME, organism-based; settings: in vivo
[20] = AUC (0 to 4 hrs) in db/db mouse plasma at 3 to 30 mg/kg, po measured up to 4 hrs; assay type: ADME, organism-based; settings: in vivo
[21] = biological target: T1, Solute carrier family 2, facilitated glucose transporter member 4 (Rattus norvegicus); test: Potency index, ratio of EC50 for 2-(4-(4-(2-methoxyphenyl)-6,7-dihydro-5H-cyclopenta[d]pyridazin-1-ylamino)phenyl)acetamide EC50 to EC50 for test compound for GLUT4 translocation activity in L6-GLUT4myc differentiated myotube cells

fold change (FC) [3]: inactive
Compound: COc1ccccc1-c1nnc(Nc2ccc(CC(N)=O)cc2)c2oc(C)cc12

fold change (FC) [3]: 0.36
Compound: COc1ccccc1-c1nnc(Nc2ccc(CC(N)=O)c(C)c2)c2c1CCC2

fold change (FC) [3]: 0.37
Compound: COc1ccccc1-c1nnc(Nc2ccc(C3(C(N)=O)CC3)cc2)c2c1CCC2

fold change (FC) [3]: 0.85
Compound: COc1ccccc1-c1nnc(Nc2ccc(CC(N)=O)cc2F)c2c1CCC2

fold change (FC) [3]: 0.08
Compound: CNC(=O)Cc1ccc(Nc2nnc(-c3ccccc3OC)c3c2CCC3)cc1

fold change (FC) [3]: 0.12
Compound: COc1ccccc1-c1nnc(Nc2ccc(CC(N)=O)cc2C(F)(F)F)c2c1CCC2

fold change (FC) [3]: 0.45
Compound: COc1ccccc1-c1nnc(Nc2ccc(CC(N)=O)cc2Cl)c2c1CCC2

fold change (FC) [3]: 0.1
Compound: COc1ccccc1-c1nnc(Nc2ccc(C(N)=O)cc2)c2c1CCC2

fold change (FC) [4]: 4.7
fold change (FC) [5]: 2
logD [1]: 2.3
remaining at 0.5 h [2]: 90%
Compound: COc1ccccc1-c1nnc(Nc2ccc(CC(N)=O)cc2)c2c1CCC2

fold change (FC) [4]: 3.7
Compound: COc1ccccc1-c1nnc(Nc2ccc(CC(N)=O)cc2)c(C)c1C

fold change (FC) [3]: 0.13
Compound: COc1cc(CC(N)=O)ccc1Nc1nnc(-c2ccccc2OC)c2c1CCC2

fold change (FC) [3]: 0.56
Compound: COc1ccccc1-c1nnc(Nc2ccc(CC(N)=O)c(F)c2)c2c1CCC2

fold change (FC) [3]: 0.04
Compound: COc1ccccc1-c1nnc(Nc2cccc(CC(N)=O)c2)c2c1CCC2

fold change (FC) [3]: 0.09
Compound: COc1ccccc1-c1nnc(Nc2ccc(CC(=O)N(C)C)cc2)c2c1CCC2

fold change (FC) [3]: 0.09
Compound: COc1ccccc1-c1nnc(Nc2ccc(CS(N)(=O)=O)cc2)c2c1CCC2

fold change (FC) [3]: 0.09
Compound: COc1ccccc1-c1nnc(Nc2ccc(CC(N)=O)cc2O)c2c1CCC2

fold change (FC) [4]: 0.9
Compound: COc1ccccc1-c1nnc(Nc2ccc(CC(N)=O)cc2)c2c1CCCC2

fold change (FC) [3]: 0.3
Compound: COc1ccccc1-c1nnc(Nc2ccc(C(C)(C)C(N)=O)cc2)c2c1CCC2

fold change (FC) [3]: 0.52
Compound: COc1ccccc1-c1nnc(Nc2ccc(CC(N)=O)cc2C)c2c1CCC2

logD [1]: 2.6
remaining at 0.5 h [2]: 92%
Ratio EC50 [21]: 7
Compound: COc1ccccc1-c1nnc(Nc2ccc(CC(N)=O)cc2F)c2ccsc12

fold change (FC) [3]: inactive
Compound: COc1ccccc1-c1nnc(Nc2ccc(CCC(N)=O)cc2)c2c1CCC2

Continued, molecule first:

Compound: NC(=O)Cc1ccc(Nc2nnc(-c3ccccc3OCC3COCCO3)c3sccc23)c(F)c1 (stereo unspecified)
logD [1]: 1.8
remaining at 0.5 h [2]: > 100%

Compound: COc1ccccc1-c1nnc(Nc2ccc(CC(N)=O)cc2)c2ccsc12
fold change (FC) [3]: 0.97

Compound: CCc1c(Nc2ccc(CC(N)=O)cc2)nnc(-c2ccccc2OC)c1CC
fold change (FC) [4]: inactive

Compound: COc1ccccc1-c1nnc(Nc2ccc(CC(N)=O)cc2)c2sccc12
fold change (FC) [3]: 0.67

Compound: COc1ccc(-c2nnc(Nc3ccc(CC(N)=O)cc3)c3ccccc23)cc1
fold change (FC) [4]: inactive

Compound: CC(C)(C)OC(=O)NCCOCCOc1ccccc1-c1nnc(Nc2ccc(CC(N)=O)cc2F)c2ccsc12
logD [1]: 3.2
remaining at 0.5 h [2]: 15%

Compound: CCc1ccccc1-c1nnc(Nc2ccc(CC(N)=O)cc2)c2ccccc12
fold change (FC) [4]: 1.7

Compound: CC(C)(C)NC(=O)NCCOCCOc1ccccc1-c1nnc(Nc2ccc(CC(N)=O)cc2F)c2ccsc12
logD [1]: 2.9
remaining at 0.5 h [2]: 2%

Compound: COCCOCCOc1ccccc1-c1nnc(Nc2ccc(CC(N)=O)cc2F)c2ccsc12
logD [1]: 1.8
remaining at 0.5 h [2]: 82%

Compound: COc1ccccc1-c1nnc(Nc2ccc(CC(N)=O)cc2)c2ccccc12
fold change (FC) [4]: 2.7

Compound: NC(=O)Cc1ccc(Nc2nnc(-c3ccccc3OCc3ccccn3)c3sccc23)c(F)c1
logD [1]: 2.9
remaining at 0.5 h [2]: 19%

Compound: NC(=O)Cc1ccc(Nc2nnc(-c3ccccc3OCc3cscn3)c3sccc23)c(F)c1
logD [1]: 2.6
remaining at 0.5 h [2]: 79%

Compound: COc1ccccc1-c1nnc(Nc2ccc(CC(N)=O)cc2)c2ccoc12
fold change (FC) [3]: 0.33

Compound: COc1cccc(-c2nnc(Nc3ccc(CC(N)=O)cc3)c3ccccc23)c1
fold change (FC) [4]: 1

Compound: Cc1ccccc1-c1nnc(Nc2ccc(CC(N)=O)cc2)c2ccccc12
fold change (FC) [4]: 1.6

Compound: COc1ccccc1-c1nnc(Nc2ccc(CC(N)=O)cc2)c2occc12
fold change (FC) [3]: 0.46

Compound: COCCOc1ccccc1-c1nnc(Nc2ccc(CC(N)=O)cc2F)c2ccsc12
logD [1]: 2.1
remaining at 0.5 h [2]: 66%
Emax (Mus musculus [6]): 220 mg/dL
Emax (Mus musculus [7]): 393 mg/dL
Emax (Mus musculus [8]): 435 mg/dL
AUC (Mus musculus [9]): 644 mg/dl.hr
AUC (Mus musculus [10]): 1160 mg/dl.hr
AUC (Mus musculus [11]): 1210 mg/dl.hr
Cmax [12]: 3.38 µM
Cmax [13]: 4 µM
Cmax [14]: 4.38 µM
AUC(0-t) at 4 h [15]: 9.01 µM·h
AUC(0-t) at 4 h [16]: 10.6 µM·h
AUC(0-t) at 4 h [17]: 12.6 µM·h
Activity (Mus musculus [18]): Dose-dependent effect
Cmax [19]: Dose-dependent effect
AUC [20]: Dose-dependent effect

Compound: Cc1cccc(-c2nnc(Nc3ccc(CC(N)=O)cc3)c3ccccc23)c1
fold change (FC) [4]: 1.3
